“And” between values parts separate entries of the source, which are not always exact repeats. Equal entries are not always repeated.
Test: Pilot pharmacokinetic study, single subcutaneous administration
Conditions: individual animals
Protocol: All study protocols were reviewed and approved by the Covance Laboratories Institutional Animal Care and Use Committee (IACUC).
Rhesus plasma samples were stored frozen at −80 °C. For analysis, the samples were thawed, and a 50-µl aliquot of each sample was treated with 200 µl acetonitrile containing a generic internal small-molecule standard. After precipitation of the protein component, a 100-µl aliquot of the supernatant was transferred to a clean 96-well plate and was mixed with 200 µl water. A 20-μl aliquot of the above solution was then injected into a Q-Exactive high-resolution mass spectrometer (Thermo Scientific) with electrospray ionization in positive mode. Quantification was performed with a Thermo Scientific Xcalibur 4.0.27.19 using accurate masses (<5 parts per million mass error; [M + H]^+ of 958.1853 for GC-CA1 and 758.3270 for the internal standard, respectively)[22],[23]. […] Pharmacokinetic parameters, including the area under the plasma concentration–time curve from time 0 to the last quantifiable time point (AUClast), the area under the plasma concentration–time curve from time 0 to infinity (AUCinf), the maximum concentration (Cmax), the time to reach the observed peak plasma concentration (tmax) and the terminal half-life (t1/2), were determined by non-compartmental analysis using Phoenix WinNonlin 6.4 build 8.1.0.3530 software (Pharsight).

## CC(C)(C#Cc1ccc(-c2ccc(Cl)c3c(NS(=O)(=O)C4CC4)nn(CC(F)F)c23)c([C@H](Cc2cc(F)cc(F)c2)NC(=O)Cn2nc(C(F)F)c3c2C(F)(F)[C@@H]2C[C@H]32)n1)S(C)(=O)=O [GS-CA1]
100 mg/kg s.c., 0.006 weeks post dose, unit not given (Fig. 1b in nM)
  Plasma GS-CA1 level: 41.2 and 93.2
100 mg/kg s.c., 0.018 weeks post dose, unit not given
  Plasma GS-CA1 level: 240
100 mg/kg s.c., 0.047 weeks post dose, unit not given
  Plasma GS-CA1 level: 588
100 mg/kg s.c., 0.14 weeks post dose, unit not given
  Plasma GS-CA1 level: 2054
100 mg/kg s.c., 0.29 weeks post dose, unit not given
  Plasma GS-CA1 level: 2247
100 mg/kg s.c., 0.43 weeks post dose, unit not given
  Plasma GS-CA1 level: 1217
100 mg/kg s.c., 0.57 weeks post dose, unit not given
  Plasma GS-CA1 level: 649
100 mg/kg s.c., 1 week post dose, unit not given
  Plasma GS-CA1 level: 448
100 mg/kg s.c., 2 weeks post dose, unit not given
  Plasma GS-CA1 level: 254
100 mg/kg s.c., 3 weeks post dose, unit not given
  Plasma GS-CA1 level: 125
100 mg/kg s.c., 4 weeks post dose, unit not given
  Plasma GS-CA1 level: 115
100 mg/kg s.c., 5 weeks post dose, unit not given
  Plasma GS-CA1 level: 92.7
100 mg/kg s.c., 6 weeks post dose, unit not given
  Plasma GS-CA1 level: 65.1
100 mg/kg s.c., 8 weeks post dose, unit not given
  Plasma GS-CA1 level: 43.2
100 mg/kg s.c., 10 weeks post dose, unit not given
  Plasma GS-CA1 level: 23.6
100 mg/kg s.c., 12 weeks post dose, unit not given
  Plasma GS-CA1 level: 11.5
100 mg/kg s.c., 14 weeks post dose, unit not given
  Plasma GS-CA1 level: 15.5 and 6.3
100 mg/kg s.c., 16 weeks post dose, unit not given
  Plasma GS-CA1 level: 10.4 and 5.1
100 mg/kg s.c., 18 weeks post dose, unit not given
  Plasma GS-CA1 level: 10.7 and 2.4
300 mg/kg s.c., 0.006 weeks post dose, unit not given (Fig. 1b in nM)
  Plasma GS-CA1 level: 74.8 and 53.9
300 mg/kg s.c., 0.018 weeks post dose, unit not given
  Plasma GS-CA1 level: 137 and 203 and 314
300 mg/kg s.c., 0.047 weeks post dose, unit not given
  Plasma GS-CA1 level: 205 and 325 and 1054
300 mg/kg s.c., 0.14 weeks post dose, unit not given
  Plasma GS-CA1 level: 3062 and 1232 and 2737
300 mg/kg s.c., 0.29 weeks post dose, unit not given
  Plasma GS-CA1 level: 3422 and 1597 and 1786
300 mg/kg s.c., 0.43 weeks post dose, unit not given
  Plasma GS-CA1 level: 1984 and 1345
300 mg/kg s.c., 0.57 weeks post dose, unit not given
  Plasma GS-CA1 level: 1342 and 1428
300 mg/kg s.c., 1 week post dose, unit not given
  Plasma GS-CA1 level: 938 and 936
300 mg/kg s.c., 2 weeks post dose, unit not given
  Plasma GS-CA1 level: 1435 and 680 and 798
300 mg/kg s.c., 3 weeks post dose, unit not given
  Plasma GS-CA1 level: 467 and 939 and 816
300 mg/kg s.c., 4 weeks post dose, unit not given
  Plasma GS-CA1 level: 461 and 659
300 mg/kg s.c., 5 weeks post dose, unit not given
  Plasma GS-CA1 level: 226 and 377 and 512
300 mg/kg s.c., 6 weeks post dose, unit not given
  Plasma GS-CA1 level: 291 and 348 and 602
300 mg/kg s.c., 8 weeks post dose, unit not given
  Plasma GS-CA1 level: 243 and 396
300 mg/kg s.c., 10 weeks post dose, unit not given
  Plasma GS-CA1 level: 116 and 206
300 mg/kg s.c., 12 weeks post dose, unit not given
  Plasma GS-CA1 level: 56.5 and 98.6 and 116
300 mg/kg s.c., 14 weeks post dose, unit not given
  Plasma GS-CA1 level: 66.9 and 71.3
300 mg/kg s.c., 16 weeks post dose, unit not given
  Plasma GS-CA1 level: 19.3 and 37.8 and 64.2
300 mg/kg s.c., 18 weeks post dose, unit not given
  Plasma GS-CA1 level: 10 and 26.3 and 22.2
male, Indian origin, rhesus monkey, in vivo, 100 mg/kg, Plasma GS-CA1 level, 100 mg/kg s.c., 0.018 weeks post dose, unit inferred
  concentration at 0.018 weeks: 0.202 µM
male, Indian origin, rhesus monkey, in vivo, 100 mg/kg, Plasma GS-CA1 level, 100 mg/kg s.c., 0.047 weeks post dose, unit inferred
  concentration at 0.047 weeks: 0.436 µM
male, Indian origin, rhesus monkey, in vivo, 100 mg/kg, Plasma GS-CA1 level, 100 mg/kg s.c., 0.14 weeks post dose, unit inferred
  concentration at 0.14 weeks: 1.21 µM
male, Indian origin, rhesus monkey, in vivo, 100 mg/kg, Plasma GS-CA1 level, 100 mg/kg s.c., 0.29 weeks post dose, unit inferred
  concentration at 0.29 weeks: 1.16 µM
male, Indian origin, rhesus monkey, in vivo, 100 mg/kg, Plasma GS-CA1 level, 100 mg/kg s.c., 0.43 weeks post dose, unit inferred
  concentration at 0.43 weeks: 0.91 µM
male, Indian origin, rhesus monkey, in vivo, 100 mg/kg, Plasma GS-CA1 level, 100 mg/kg s.c., 0.57 weeks post dose, unit inferred
  concentration at 0.57 weeks: 0.487 µM
male, Indian origin, rhesus monkey, in vivo, 100 mg/kg, Plasma GS-CA1 level, 100 mg/kg s.c., 1 week post dose, unit inferred
  concentration at 1 week: 0.353 µM
